# Measurements: patent publication US9149536B2, “Conjugated antimicrobial agents” (priority 2009, dated 2015)
# Where two headings read alike, the source gives them in different places.
# How the values were obtained:
# B. subtilis ATCC 6633 [1] = experiment: MIC, double-microdilution, B. subtilis ATCC 6633; type: cell-based; settings: for MIC: Bacillus subtilis, ATCC6633
# E. coli DNA gyrase = E. coli DNA gyrase (Escherichia coli, UniProt P0AES4+P0AES6)
# MRSA ATCC 43300 = experiment: microbe, parasite or virus in culture; type: cell-based, S. aureus; settings: Table 4
# [2] = system: bacterial protein synthesis; experiment: In vitro coupled transcription/translation assay, E. coli S30 extract; type: biochemical; settings: luciferase readout
# Method: Protein translation inhibition by the different compounds was quantified in a coupled transcription/translation assay by using E. coli S30 extracts for circular DNA with the pBEST/uc plasmid (Promega), according to the manufacturer's protocol.
# Translation reactions (25 μl) that contained variable concentrations of the tested compound were incubated at 37° C. for 60 minutes, cooled on ice for 5 minutes, and diluted with a dilution reagent (tris-phosphate buffer (25 mM, pH 7.8), DTT (2 mM), 1,2-diaminocyclohexanetetraacetate (2 mM), glycerol (10%), Triton X-100 (1%) and BSA (1 mg/ml)) into 96-well plates. The luminescence was measured immediately after the addition of the Luciferase Assay Reagent (50 μl; Promega), and the light emission was recorded with a Victor3™ Plate Reader (Perkin-Elmer). The concentration of half-maximal inhibition (IC50) was obtained from fitting concentration-response curves to the data of at least two independent experiments by using Grafit 5 software (Leatherbarrow, R. J. Erithacus Software Ltd: Horley, U.K., 2001).
# (§1) Relaxation assays were conducted with E. coli TopoIV.
# E. coli AG100B = experiment: MIC, double-microdilution, E. coli AG100B; type: cell-based, Escherichia coli; settings: for MIC: Escherichia coli, AG100B
# Description: AG100B and AG100A are two kanamycin resistant Escherichia coli strains expressing APH(3′)-I aminoglycoside resistance enzyme.
# E. coli R477-100 = experiment: MIC, double-microdilution, E. coli R477-100; type: cell-based, Escherichia coli; settings: for MIC: Escherichia coli
# E. coli TopoIV = target: T1, E. coli TopoIV (Escherichia coli, UniProt P0AFI2+P20083); experiment: TopoIV relaxation assay; type: biochemical
# T1 construct: purchased Inspiralis Ltd
# Method: DNA relaxation activity was assayed with supercoiled pBR322 DNA as a substrate (Inspiralis Ltd) according to the manufacturer's protocol. The standard reaction mixture (20 μl) contained 40 mM HEPES-KOH pH 7.6, 100 mM potassium glutamate, 10 mM Mg(OAc)2, 10 mM dithiothreitol, 1 mM ATP, 50 μg/ml albumin, 5 ng/μl […] pBR322, and TopoIV protein. The reaction mixture was incubated at 37° C. for 30 minutes, and then was terminated by addition of 2 μl 0.5 M EDTA, 3.5 μl loading dye and 20 μl chloroform/isoamyl alcohol (24:1) mixture. […] One unit of relaxation activity was defined as the amount of TopoIV required to relax 0.1 μg of plasmid in 30 minutes.
# as §1
# E. coli ATCC 25922 = experiment: MIC, double-microdilution, E. coli ATCC 25922; type: cell-based, Escherichia coli; settings: for MIC: Escherichia coli, ATCC25922
# E. coli AG100A = experiment: MIC, double-microdilution, E. coli AG100A; type: cell-based, Escherichia coli
# E. coli BL21/pETSACG1 = experiment: microbe, parasite or virus in culture; type: cell-based
# Method: (§2) For this purpose, exemplary conjugates, according to some embodiments of the present invention, were tested against five isogenic E. coli strains. E. coli (pSF815) and E. coli (pET9d) are laboratory resistant strains derived by transformation of E. coli XL1 blue (background strain) with the pSF815 and pET9d plasmids, respectively. […] The last two isogenic strains used were E. coli BL21 (background strain) and E. coli (pETSACG1). […] These three enzymes are among the most prevalent modes of resistance found in aminoglycosides resistance strains.
# (§3) The MIC ratios were calculated by dividing the MIC value against resistant strain to that against the respective background strain.
# E. coli BL21 = experiment: microbe, parasite or virus in culture; type: cell-based; settings: background strain
# Method: as §2, §3
# E. coli XL1 blue = experiment: microbe, parasite or virus in culture; type: cell-based; settings: background strain
# Method: as §2, §3
# E. coli XL1 blue/pET9d = experiment: microbe, parasite or virus in culture; type: cell-based
# Method: as §2, §3
# E. coli XL1 blue/pSF815 = experiment: microbe, parasite or virus in culture; type: cell-based
# Method: as §2, §3
# B. subtilis ATCC 6633 [3] = experiment: microbe, parasite or virus in culture; type: cell-based; settings: Bacillus subtilis, ATCC6633, read-out: MIC 15th passage, B.subtilis ATCC 6633
# Method: (§4) In parallel, MIC evolution during these subcultures was compared concomitantly with each new generation, using bacteria harvested from control wells (wells cultured without antimicrobial agent from the previous generation). The relative MIC was calculated for each experiment from the ratio of MIC obtained for a given subculture to that obtained for first-time exposure.
# E. coli ATCC 35218 = experiment: microbe, parasite or virus in culture; type: cell-based; settings: Escherichia coli, ATCC35218, read-out: MIC 15th passage, E.coli ATCC 35218
# Method: as §4
# [4] = Table 4, kanamycin resistant, APH(3′)-I
# [5] = MIC resistant strain divided by MIC background strain
# T1 sequence (P0AFI2 whole entry): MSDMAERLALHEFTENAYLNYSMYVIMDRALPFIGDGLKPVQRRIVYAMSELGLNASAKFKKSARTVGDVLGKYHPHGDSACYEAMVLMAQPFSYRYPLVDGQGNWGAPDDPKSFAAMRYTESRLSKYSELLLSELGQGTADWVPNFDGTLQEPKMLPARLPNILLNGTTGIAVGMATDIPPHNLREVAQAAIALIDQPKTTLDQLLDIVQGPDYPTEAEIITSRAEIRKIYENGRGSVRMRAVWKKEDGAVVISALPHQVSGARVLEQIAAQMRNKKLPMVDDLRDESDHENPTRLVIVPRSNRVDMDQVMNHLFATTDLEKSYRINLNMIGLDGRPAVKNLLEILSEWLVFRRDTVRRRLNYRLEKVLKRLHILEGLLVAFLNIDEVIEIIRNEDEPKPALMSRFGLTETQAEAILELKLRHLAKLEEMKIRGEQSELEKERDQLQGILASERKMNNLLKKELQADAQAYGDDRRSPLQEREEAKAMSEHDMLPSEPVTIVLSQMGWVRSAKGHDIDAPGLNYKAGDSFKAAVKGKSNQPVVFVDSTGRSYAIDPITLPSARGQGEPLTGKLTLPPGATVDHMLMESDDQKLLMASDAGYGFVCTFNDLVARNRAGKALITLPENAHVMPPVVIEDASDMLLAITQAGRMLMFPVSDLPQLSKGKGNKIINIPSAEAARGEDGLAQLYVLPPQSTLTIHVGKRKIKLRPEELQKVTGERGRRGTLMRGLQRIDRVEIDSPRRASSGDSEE
# T1 sequence (P20083 whole entry): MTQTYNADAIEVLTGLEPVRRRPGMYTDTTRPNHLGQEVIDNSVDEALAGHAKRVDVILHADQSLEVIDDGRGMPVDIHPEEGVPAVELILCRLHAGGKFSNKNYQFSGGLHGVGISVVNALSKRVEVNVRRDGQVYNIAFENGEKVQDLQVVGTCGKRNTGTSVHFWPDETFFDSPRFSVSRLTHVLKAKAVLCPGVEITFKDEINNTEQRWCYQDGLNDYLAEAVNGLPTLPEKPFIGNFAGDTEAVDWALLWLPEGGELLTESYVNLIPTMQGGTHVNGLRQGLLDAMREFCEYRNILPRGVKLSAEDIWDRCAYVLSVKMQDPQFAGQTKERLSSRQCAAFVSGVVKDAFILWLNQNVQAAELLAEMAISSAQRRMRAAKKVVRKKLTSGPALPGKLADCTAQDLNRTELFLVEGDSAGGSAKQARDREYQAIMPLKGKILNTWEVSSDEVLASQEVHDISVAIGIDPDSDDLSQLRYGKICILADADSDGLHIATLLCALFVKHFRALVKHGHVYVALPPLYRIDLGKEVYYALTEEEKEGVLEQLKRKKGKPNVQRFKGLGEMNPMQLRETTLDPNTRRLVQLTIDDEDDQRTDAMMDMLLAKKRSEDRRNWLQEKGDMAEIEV
# E. coli DNA gyrase, sequence (P0AES4 whole entry, one chain of several): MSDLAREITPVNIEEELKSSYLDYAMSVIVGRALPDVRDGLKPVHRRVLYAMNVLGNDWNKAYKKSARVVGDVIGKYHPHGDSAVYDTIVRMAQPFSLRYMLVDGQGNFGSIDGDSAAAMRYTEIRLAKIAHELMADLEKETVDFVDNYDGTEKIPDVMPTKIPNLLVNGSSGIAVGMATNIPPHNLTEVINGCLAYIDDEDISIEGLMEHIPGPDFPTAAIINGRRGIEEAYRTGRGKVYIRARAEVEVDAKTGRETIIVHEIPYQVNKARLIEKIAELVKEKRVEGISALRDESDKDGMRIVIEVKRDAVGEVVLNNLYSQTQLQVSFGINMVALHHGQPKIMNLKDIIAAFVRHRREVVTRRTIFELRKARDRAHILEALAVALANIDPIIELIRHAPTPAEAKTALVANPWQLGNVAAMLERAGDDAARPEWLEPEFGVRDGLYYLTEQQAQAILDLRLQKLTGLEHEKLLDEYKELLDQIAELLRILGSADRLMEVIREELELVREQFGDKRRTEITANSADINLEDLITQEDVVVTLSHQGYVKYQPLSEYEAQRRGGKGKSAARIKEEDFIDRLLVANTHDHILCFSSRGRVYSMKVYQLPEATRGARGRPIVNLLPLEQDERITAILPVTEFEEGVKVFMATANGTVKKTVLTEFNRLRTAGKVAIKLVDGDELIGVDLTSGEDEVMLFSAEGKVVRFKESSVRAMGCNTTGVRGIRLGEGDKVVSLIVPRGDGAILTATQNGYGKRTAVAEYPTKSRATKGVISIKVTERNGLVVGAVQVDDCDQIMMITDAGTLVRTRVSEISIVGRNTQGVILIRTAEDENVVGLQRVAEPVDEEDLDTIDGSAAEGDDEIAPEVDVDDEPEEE
structure (smiles),measurement,setting,value
"NCC1OC(OC2C(COCc3cn(CCN4CCN(c5cc6c(cc5F)c(=O)c(C(=O)O)cn6C5CC5)CC4)nn3)OC(OC3C(O)C(N)CC(N)C3OC3OC(CN)C(O)C(O)C3N)C2O)C(N)C(O)C1O (centres unmarked) [Compound 1q, 4-((5″-neomycinmethoxy)methyl)-1-(2-(ciprofloxacin)ethyl)-1H-1,2,3-triazole]",MIC B. subtilis ATCC 6633,B. subtilis ATCC 6633 [1]; Table 4,0.75 µg/mL
same,IC50 fold superior than that of Cipro in DNA gyrase assay,E. coli DNA gyrase; general statements name DNA gyrase and TopoIV together,32 fold
same,IC50,"E. coli DNA gyrase; read-out: DNA gyrase IC50, supercoiling assay, relaxed pBR322",0.041 ± 0.009 µM
same,MIC MRSA ATCC 43300,MRSA ATCC 43300,6 µg/mL
same,IC50,[2],18.1 ± 4.9 µM
same,MIC E. coli AG100B,E. coli AG100B; [4],12 µg/mL
same,fold more potent than NeoB against E. coli AG100B,E. coli AG100B; from MIC,32 fold
same,MIC E. coli R477-100,E. coli R477-100; Table 4,3 µg/mL
same,IC50 fold superior than Cipro in TopoIV assay,E. coli TopoIV,1.4 fold
same,IC50,"E. coli TopoIV; relaxation assay, supercoiled pBR322",7.9 ± 0.25 µM
same,MIC E. coli ATCC 25922,E. coli ATCC 25922; Table 4,3 µg/mL
same,MIC E. coli AG100A,E. coli AG100A; [4],0.38 µg/mL
same,fold more potent than NeoB against E. coli AG100A,E. coli AG100A; from MIC,253 fold
same,MIC ratio BL21/pETSACG1 to BL21,E. coli BL21/pETSACG1; [5],1
same,MIC BL21/pETSACG1,E. coli BL21/pETSACG1; expressed enzyme APH(3′)-IIIa,0.2 μg/ml
same,MIC BL21,E. coli BL21,0.2 µg/mL
same,MIC XL1 blue,E. coli XL1 blue,3 µg/mL
same,MIC ratio XL1 blue/pET9d to XL1 blue,E. coli XL1 blue/pET9d; [5],4
same,MIC XL1 blue/pET9d,E. coli XL1 blue/pET9d; expressed enzyme APH(3′)-Ia,12 μg/ml
same,MIC ratio XL1 blue/pSF815 to XL1 blue,E. coli XL1 blue/pSF815; [5],4
same,MIC XL1 blue/pSF815,E. coli XL1 blue/pSF815; expressed enzyme AAC(6′)-APH(2″),12 μg/ml
"O=C(O)c1cn(C2CC2)c2cc(N3CCNCC3)c(F)cc2c1=O [Cipro, ciprofloxacin, reference compound]",MIC,"B. subtilis ATCC 6633 [1]; Table 4, read-out: MIC B. subtilis ATCC 6633",0.02 µg/mL
same,MIC,"B. subtilis ATCC 6633 [1]; Table 6, read-out: MIC Bacillus subtilis",0.023 µg/mL
same,MIC,"MRSA ATCC 43300; Staphylococcus aureus, read-out: MIC MRSA ATCC 43300",0.2 µg/mL
same,MIC MRSA ATCC 43300,MRSA ATCC 43300,0.20 µg/mL
same,MIC,B. subtilis ATCC 6633 [3],0.75 µg/mL
same,MIC,E. coli ATCC 35218,0.75 µg/mL
same,Protein synthesis IC50,[2],inactive
same,MIC,"E. coli AG100B; read-out: MIC E. coli AG100B, Table 4, kanamycin resistant, APH(3′)-I",0.05 µg/mL
same,MIC,"E. coli AG100B; read-out: MIC E. coli AG100B, Table 6",0.06 µg/mL
same,MIC,"E. coli R477-100; R477100, read-out: MIC E. Coli R477-100",0.023 µg/mL
same,MIC,"E. coli R477-100; R477100, read-out: MIC E. coli R477-100",0.02 µg/mL
same,MIC,"E. coli ATCC 25922; Table 4, read-out: MIC E. coli ATCC 25922",0.02 µg/mL
same,MIC,"E. coli ATCC 25922; Table 6, read-out: MIC E. coli 25922",0.023 µg/mL
same,MIC,"E. coli AG100A; Escherichia coli, AG100A, read-out: MIC E. coli AG100A, Table 6",< 0.003 µg/mL
